The record followed here is US9776979B2, “EBI2 modulators” (Sanford-Burnham Medical Research Institute, priority 2013, dated 2017).

The structures appear in SMILES notation.

One may read the IC50 as the concentration that gives 50% inhibition.

The target in one experiment is EBI2 (Homo sapiens, UniProt P32249). Briefly: Cell-based luminescent assay (EBI2 modulation).
Sequence of EBI2 (P32249 whole entry): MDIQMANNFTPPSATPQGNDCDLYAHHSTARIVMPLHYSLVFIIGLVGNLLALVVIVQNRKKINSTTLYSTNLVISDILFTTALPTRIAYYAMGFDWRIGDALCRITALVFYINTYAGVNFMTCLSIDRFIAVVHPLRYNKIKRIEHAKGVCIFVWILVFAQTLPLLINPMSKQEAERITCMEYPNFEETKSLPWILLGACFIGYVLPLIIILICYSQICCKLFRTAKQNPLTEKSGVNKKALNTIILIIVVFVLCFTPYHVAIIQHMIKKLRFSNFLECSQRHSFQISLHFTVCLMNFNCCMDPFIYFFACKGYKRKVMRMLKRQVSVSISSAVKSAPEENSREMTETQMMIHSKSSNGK
Conditions: not given
Put shortly:
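Cells plated overnight at 37° C, then exposed to compound at 4-5 uM final with 80 nM 7a,25-OHC agonist for 60 min at 37° C. Luminescence read after 60 min detection at 25° C in the dark; values normalized to neutral and stimulator controls and plate-pattern corrected.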
Take `Cc1cccc(CN2CCN(C(=O)/C=C/c3ccccc3)CC2)c1` [Compound C201, (2E)-1-{4-[(3-methylphenyl)methyl]piperazinyl}-3-phenylprop-2-en-1-one]: the 50% inhibitory concentration (IC50) was < 100 nM.

The same experiment, now with this note: cell-based luminescence; 7a,25-OHC final assay concentration 80 nM; 60 minutes incubation; read-out: IC50.
Regarding `O=C(O)c1ccc(CN2CCN(C(=O)c3cc4cc(Cl)ccc4[nH]3)CC2)cc1` [Compound C177, 4-({4-[(5-chloroindol-2-yl)carbonyl]piperazinyl}methyl)benzoic acid], the IC50 lay in the range of 500 to 5000 nM.
On the same count and under the same terms, as for `O=C(c1cc2cccc([N+](=O)[O-])c2[nH]1)N1CCN(C(c2ccccc2)c2ccccc2)CC1` [Compound C178, 4-(diphenylmethyl)piperazinyl 7-nitroindol-2-yl ketone], the figure is 500 to 5000 nM.
`O=C(C#Cc1ccc(F)cc1)N1CCN(Cc2ccc(F)cc2C(F)(F)F)CC1` [Compound C179, 3-(4-fluorophenyl)-1-(4-{[4-fluoro-2-(trifluoromethyl)phenyl]methyl}piperazinyl)prop-2-yn-1-one]: the half-maximal inhibitory concentration (IC50) lay within 500 to 5000 nM.
On the same count and under the same terms, as for `O=C(c1cc2ccc(Br)cc2[nH]1)N1CCN(Cc2ccc(Br)cc2)CC1` [Compound C180, 6-bromoindol-2-yl 4-[(4-bromophenyl)methyl]piperazinyl ketone], the figure is 500 to 5000 nM.
Turning to `O=C(Nc1ccc(F)cc1)c1ccc(CN2CCN(C(=O)c3cc4cc(Cl)ccc4[nH]3)CC2)cc1` [Compound C181, [4-({4-[(5-chloroindol-2-yl)carbonyl]piperazinyl}methyl)phenyl]-N-(4-fluorophenyl)carboxamide], the IC50 lay within 500 to 5000 nM.
On the same count and under the same terms, in the case of `O=C(c1cc2cc(Cl)ccc2[nH]1)N1CCN(c2ccccn2)CC1` [Compound C182, 5-chloroindol-2-yl 4-(2-pyridyl)piperazinyl ketone] it was 500 to 5000 nM.
Still for that read-out and setting: as for `O=C(c1ccc2nc(C(F)(F)F)[nH]c2c1)N1CCN(C(=O)c2cc3cc(Cl)ccc3[nH]2)CC1` [Compound C183, 5-chloroindol-2-yl 4-{[2-(trifluoromethyl)benzimidazol-5-yl]carbonyl}piperazinyl ketone], the figure is 500 to 5000 nM; as for `O=C(NC1CCN(C(=O)c2cc3cc(Cl)ccc3[nH]2)CC1)c1ccc(Cl)cc1` [Compound C184, N-{1-[(5-chloroindol-2-yl)carbonyl](4-piperidyl)}(4-chlorophenyl)carboxamide], 500 to 5000 nM; as for `Cc1c(C(=O)N2CCN(C(c3ccccc3)c3ccccc3)CC2)sc2ccccc12` [Compound C185, 4-(diphenylmethyl)piperazinyl 3-methylbenzo[b]thiophen-2-yl ketone], 500 to 5000 nM.
On the same count and under the same terms, in the case of `O=C(C=Cc1ccc2c(c1)OCO2)N1CCN(Cc2ccc(F)cc2C(F)(F)F)CC1` [Compound C186, 3-(2H-benzo[3,4-d]1,3-dioxolan-5-yl)-1-(4-{[4-fluoro-2-(trifluoromethyl)phenyl]methyl}piperazinyl)prop-2-en-1-one] it was 500 to 5000 nM; in that of `O=C(Nc1ccc(F)cc1)c1cccc(CN2CCN(C(=O)c3cc4cc(Cl)ccc4[nH]3)CC2)c1` [Compound C187, [3-({4-[(5-chloroindol-2-yl)carbonyl]piperazinyl}methyl)phenyl]-N-(4-fluorophenyl)carboxamide], 500 to 5000 nM; in that of `O=C(O)c1cccc(CN2CCN(C(=O)c3cc4cc(Cl)ccc4[nH]3)CC2)c1` [Compound C188, 3-({4-[(5-chloroindol-2-yl)carbonyl]piperazinyl}methyl)benzoic acid], 500 to 5000 nM.
On to `O=C(c1cc2ccc(F)cc2[nH]1)N1CCN(C(=O)c2ccc(F)cc2C(F)(F)F)CC1` [Compound C189, 6-fluoroindol-2-yl 4-{[4-fluoro-2-(trifluoromethyl)phenyl]carbonyl}piperazinyl ketone], for which the IC50 is 500 to 5000 nM.
The same measure, in the same setting: as for `CC(C)(C)c1ccc(S(=O)(=O)N2CCN(C(=O)/C=C/c3ccccc3F)CC2)cc1` [Compound C190, (2E)-1-(4-{[4-(tert-butyl)phenyl]sulfonyl}piperazinyl)-3-(2-fluorophenyl)prop-2-en-1-one], the figure is 500 to 5000 nM.
Still for that read-out and setting: in the case of `O=C(/C=C/c1ccccc1)N1CCN(Cc2ccccn2)CC1` [Compound C191, (2E)-3-phenyl-1-[4-(2-pyridylmethyl)piperazinyl]prop-2-en-1-one] it was 500 to 5000 nM; in that of `O=C(/C=C/c1ccc(F)cc1)N1CCCN(C(c2ccccc2)c2ccccc2)CC1` [Compound C192, (2E)-1-[4-(diphenylmethyl)(1,4-diazaperhydroepinyl)]-3-(4-fluorophenyl)prop-2-en-1-one], 500 to 5000 nM.
On the same count and under the same terms, in the case of `O=C(c1cc2ncccc2[nH]1)N1CCN(C(c2ccccc2)c2ccccc2)CC1` [Compound C193, 4-(diphenylmethyl)piperazinyl pyrrolo[4,5-b]pyridin-2-yl ketone] it was 500 to 5000 nM; in that of `O=C(c1ccc(P(=O)(O)O)cc1)N1CCN(C(=O)c2cc3cc(Cl)ccc3[nH]2)CC1` [Compound C194, 5-chloroindol-2-yl 4-[(4-phosphonophenyl)carbonyl]piperazinyl ketone], 500 to 5000 nM; in that of `O=C(C#Cc1cc(F)cc(F)c1)N1CCN(Cc2ccc(C(F)(F)F)cc2)CC1` [Compound C195, 3-(3,5-difluorophenyl)-1-(4-{[4-(trifluoromethyl)phenyl]methyl}piperazinyl)prop-2-yn-1-one], 500 to 5000 nM.
With `Cc1ccccc1/C=C/C(=O)N1CCN(S(=O)(=O)c2ccccc2)CC1` [Compound C196, (2E)-3-(2-methylphenyl)-1-[4-(phenylsulfonyl)piperazinyl]prop-2-en-1-one], the IC50 lay in the range of 500 to 5000 nM.
Still for that read-out and setting: in the case of `O=C(C#Cc1cc(F)cc(F)c1)N1CCN(Cc2ccc(F)cc2)CC1` [Compound C197, 3-(3,5-difluorophenyl)-1-{4-[(4-fluorophenyl)methyl]piperazinyl}prop-2-yn-1-one] it was 500 to 5000 nM.
Still for that read-out and setting: as for `O=C(/C=C/c1ccc(F)cc1)N1CCCN(S(=O)(=O)/C=C/c2ccccc2)CC1` [Compound C198, (2E)-1-{4-[((1E)-2-phenylvinyl)sulfonyl](1,4-diazaperhydroepinyl)}-3-(4-fluorophenyl)prop-2-en-1-one], the figure is 500 to 5000 nM; as for `O=C(c1cc2cc(Cl)ccc2[nH]1)N1CCC(N2CCOCC2)CC1` [Compound C199, 5-chloroindol-2-yl 4-morpholin-4-ylpiperidyl ketone], 500 to 5000 nM; as for `O=C(c1ccc(C(F)(F)F)c(F)c1)N1CCN(C(=O)c2cc3cc(C(F)(F)F)ccc3[nH]2)CC1` [Compound C200, 4-{[3-fluoro-4-(trifluoromethyl)phenyl]carbonyl}piperazinyl 5-(trifluoromethyl)indol-2-yl ketone], < 100 nM.
Same read-out and setting: in the case of `CC(C)(C)c1ccc(S(=O)(=O)N2CCN(C(=O)/C=C/c3ccc(F)cc3)CC2)cc1` [Compound C202, (2E)-1-(4-{[4-(tert-butyl)phenyl]sulfonyl}piperazinyl)-3-(4-fluorophenyl)prop-2-en-1-one] it was < 100 nM.
Take `O=C(/C=C/c1ccccc1)N1CCN(Cc2ccc(Br)cc2)CC1` [Compound C203, (2E)-1-{4-[(4-bromophenyl)methyl]piperazinyl}-3-phenylprop-2-en-1-one]: the 50% inhibitory concentration (IC50) is < 100 nM.
Same read-out and setting: in the case of `O=C(c1ccc(-c2nnn[nH]2)cc1)N1CCN(C(=O)c2cc3cc(Cl)ccc3[nH]2)CC1` [Compound C204, 5-chloroindol-2-yl 4-[(4-(1H-1,2,3,4-tetraazol-5-yl)phenyl)carbonyl]piperazinyl ketone] it was < 100 nM; in that of `O=C(/C=C/c1ccc(F)cc1)N1CCN(S(=O)(=O)c2ccccc2)CC1` [Compound C205, (2E)-3-(4-fluorophenyl)-1-[4-(phenylsulfonyl)piperazinyl]prop-2-en-1-one], < 100 nM; in that of `O=C(/C=C/c1ccc(F)cc1)N1CCN(S(=O)(=O)c2ccc([N+](=O)[O-])cc2)CC1` [Compound C206, (2E)-3-(4-fluorophenyl)-1-{4-[(4-nitrophenyl)sulfonyl]piperazinyl}prop-2-en-1-one], < 100 nM.
In the case of `O=C(c1cc2cc(Br)ccc2[nH]1)N1CCN(C(=O)c2ccc(F)cc2C(F)(F)F)CC1` [Compound C208, 5-bromoindol-2-yl 4-{[4-fluoro-2-(trifluoromethyl)phenyl]carbonyl}piperazinyl ketone], the half-maximal inhibitory concentration (IC50) was < 100 nM.
The same measure, in the same setting: in the case of `O=C(/C=C/c1ccc(F)cc1)N1CCN(S(=O)(=O)c2cccc(Br)c2)CC1` [Compound C209, (2E)-1-{4-[(3-bromophenyl)sulfonyl]piperazinyl}-3-(4-fluorophenyl)prop-2-en-1-one] it was < 100 nM.
Regarding `O=C(/C=C/c1ccc(Cl)c(Cl)c1)N1CCN(Cc2ccc(F)cc2)CC1` [Compound C210, (2E)-3-(3,4-dichlorophenyl)-1-{4-[(4-fluorophenyl)methyl]piperazinyl}prop-2-en-1-one], the IC50 was < 100 nM.
Take `O=C(c1cc2cc(C(F)(F)F)ccc2[nH]1)N1CCN(Cc2ccc(F)cc2)CC1` [Compound C211, 4-[(4-fluorophenyl)methyl]piperazinyl 5-(trifluoromethyl)indol-2-yl ketone]: the IC50 is < 100 nM.
The same measure, in the same setting: in the case of `O=C(/C=C/c1ccc(F)cc1)N1CCN(S(=O)(=O)c2cccc(F)c2)CC1` [Compound C212, (2E)-3-(4-fluorophenyl)-1-{4-[(3-fluorophenyl)sulfonyl]piperazinyl}prop-2-en-1-one] it was < 100 nM; in that of `CCOc1ccc(/C=C/C(=O)N2CCN(S(=O)(=O)c3ccc(Br)cc3)CC2)cc1` [Compound C213, (2E)-1-{4-[(4-bromophenyl)sulfonyl]piperazinyl}-3-(4-ethoxyphenyl)prop-2-en-1-one], < 100 nM.
`O=C(/C=C/c1ccc(Cl)c(Cl)c1)N1CCN(Cc2ccc(Cl)cc2)CC1` [Compound C214, (2E)-3-(3,4-dichlorophenyl)-1-{4-[(4-chlorophenyl)methyl]piperazinyl}prop-2-en-1-one]: the IC50 was < 100 nM.
Same read-out and setting: in the case of `O=C(c1cc2ccc(F)cc2[nH]1)N1CCN(C(c2ccccc2)c2ccccc2)CC1` [Compound C215, 4-(diphenylmethyl)piperazinyl 6-fluoroindol-2-yl ketone] it was < 100 nM.
